Measured values published in patent US20250049926A1, “PHARMACEUTICAL COMPOSITIONS COMPRISING MODIFIED BETACYCLODEXTRINS” (priority 2021, published 2025).

Assay: Solubility measurement of saturated solutions by HPLC at room temperature (0 h and 24 h)
Format: physicochemical
Settings: for solubility at 24 h / solubility at 0 h: thermodynamic from solid
Procedure: The vial contents are prepared starting with 2.5 mg of the compound of formula (I). The primary excipient is added followed by any further excipient and then the buffered water to a total volume of 500 μL. All components are mixed in a vortex mixer for ca. 5 minutes. If everything is dissolved an additional 2.5 mg of the compound of formula (I) is added and vortexed again for ca. 5 minutes. This is repeated until a saturated solution (suspension) is obtained.
The solubility in vial 1 is measured immediately as described below.
To measure solubility 400 μl of the suspension are taken and placed in a centrifugation device above a 0.2 μm filter. Centrifugation is performed at 14,000 rpm for 10 minutes and if necessary repeated for additional 10 minutes. The filter is removed from the vial and 100 μL is taken and diluted with 400 μL high-performance liquid chromatography (HPLC) diluent solution (see below) or diluted with 900 μL HPLC diluent solution in the event 5 mg or more of the compound of formula (I) was used. The pH of the solution is measured. A further 100 μL of the vial solution is taken and diluted with 400 μL of HPLC diluent solution or diluted with 900 μL HPLC diluent solution in the event 5 mg or more of the compound of formula (I) was used. The assay of the solution versus control stock solution is measured by HPLC and the solubility is calculated as described below. The HPLC diluent solution is 0.1% trifluoroacetic acid (TFA) in acetonitrile (ACN) and water (1:1 v/v).
All solubility tests are performed at room temperature.
The HPLC method for assessing solubility is performed as follows:
The solubility of the compound of formula (I) is calculated according to the following formula:
[formula] • Solubility=solubility of compound of formula (I) (mg/mL) • A=peak area of the compound of the sample tested • a=value of constant “a” in Linear regression equation y=ax+b • b=value of constant “b” in Linear regression equation y=ax+b • n=dilution time • Formulations for stability assessment are prepared as follows: […]

[1] = buffered water with excipients, pH 7, aqueous with cosolvent or surfactant or cyclodextrin, CBS 30 mM pH 7.0, NaCl 3 mg/mL, SBE-beta-CD 40 mg/mL, pH exp 7.0

`COc1cc(N2CCNCC2)ccc1Nc1ncc2c(n1)-n1ccc(C(=O)Nc3c(C)cccc3C)c1CC2` [compound of formula (I)] showed a solubility at 24 h (buffered water with excipients, pH 4, aqueous with cosolvent or surfactant or cyclodextrin, CBS 30 mM pH 4.0, NaCl 6 mg/mL, SBE-beta-CD 40 mg/mL + Propylene glycol 5 mg/mL, pH exp 4.3) of 3820 µg/mL, a solubility at 0 h (buffered water with excipients, pH 4, aqueous with cosolvent or surfactant or cyclodextrin, CBS 30 mM pH 4.0, NaCl 6 mg/mL, SBE-beta-CD 40 mg/mL + Propylene glycol 10 mg/mL, pH exp 4.1) of 2420 µg/mL and a solubility at 24 h (buffered water with excipients, pH 4, aqueous with cosolvent or surfactant or cyclodextrin, CBS 30 mM pH 4.0, NaCl 6 mg/mL, SBE-beta-CD 40 mg/mL + Propylene glycol 10 mg/mL, pH exp 4.2) of 3650 µg/mL. The solubility at 0 h (buffered water with excipients, pH 4, aqueous with cosolvent or surfactant or cyclodextrin, CBS 30 mM pH 4.0, NaCl 6 mg/mL, SBE-beta-CD 40 mg/mL + Propylene glycol 20 mg/mL, pH exp 4.1) was 2310 µg/mL, the solubility at 24 h (buffered water with excipients, pH 4, aqueous with cosolvent or surfactant or cyclodextrin, CBS 30 mM pH 4.0, NaCl 6 mg/mL, SBE-beta-CD 40 mg/mL + Propylene glycol 20 mg/mL, pH exp 4.2) was 3440 µg/mL and the solubility at 0 h (buffered water with excipients, pH 4, aqueous with cosolvent or surfactant or cyclodextrin, CBS 30 mM pH 4.0, NaCl 6 mg/mL, SBE-beta-CD 40 mg/mL + Propylene glycol 30 mg/mL, pH exp 4.1) was 2150 µg/mL. For the same compound, the solubility at 24 h (buffered water with excipients, pH 4, aqueous with cosolvent or surfactant or cyclodextrin, CBS 30 mM pH 4.0, NaCl 6 mg/mL, SBE-beta-CD 40 mg/mL + Propylene glycol 30 mg/mL, pH exp 4.2) was 3350 µg/mL, the solubility at 0 h (buffered water with excipients, pH 4, aqueous with cosolvent or surfactant or cyclodextrin, CBS 30 mM pH 4.0, SBE-beta-CD 54 mg/mL + Ethanol 16 mg/mL, pH exp 4.1) was 2490 µg/mL and the solubility at 24 h (buffered water with excipients, pH 4, aqueous with cosolvent or surfactant or cyclodextrin, CBS 30 mM pH 4.0, SBE-beta-CD 54 mg/mL + Ethanol 16 mg/mL, pH exp 4.3) was 3850 µg/mL. For the same compound, the solubility at 0 h (buffered water with excipients, pH 4, aqueous with cosolvent or surfactant or cyclodextrin, CBS 30 mM pH 4.0, SBE-beta-CD 54 mg/mL + PEG 300 56 mg/mL, pH exp 4.2) was 2890 µg/mL, the solubility at 24 h (buffered water with excipients, pH 4, aqueous with cosolvent or surfactant or cyclodextrin, CBS 30 mM pH 4.0, SBE-beta-CD 54 mg/mL + PEG 300 56 mg/mL, pH exp 4.3) was 4030 µg/mL and the solubility at 0 h (buffered water with excipients, pH 4, aqueous with cosolvent or surfactant or cyclodextrin, CBS 30 mM pH 4.0, SBE-beta-CD 56 mg/mL + PEG 400 22 mg/mL, pH exp 4.2) was 2810 µg/mL. It also gave a solubility at 24 h (buffered water with excipients, pH 4, aqueous with cosolvent or surfactant or cyclodextrin, CBS 30 mM pH 4.0, SBE-beta-CD 56 mg/mL + PEG 400 22 mg/mL, pH exp 4.3) of 4060 µg/mL, a solubility at 0 h (buffered water with excipients, pH 4, aqueous with cosolvent or surfactant or cyclodextrin, GBS (gluconate) 30 mM pH 4.0, NaCl 3 mg/mL, SBE-beta-CD 40 mg/mL, pH exp 4.1) of 2590 µg/mL and a solubility at 24 h (buffered water with excipients, pH 4, aqueous with cosolvent or surfactant or cyclodextrin, GBS (gluconate) 30 mM pH 4.0, NaCl 3 mg/mL, SBE-beta-CD 40 mg/mL, pH exp 4.5) of 3940 µg/mL. The solubility at 0 h (buffered water with excipients, pH 4, aqueous with cosolvent or surfactant or cyclodextrin, LBS (lactate) 30 mM pH 4.0, NaCl 3 mg/mL, SBE-beta-CD 40 mg/mL, pH exp 4.1) was 2690 µg/mL, the solubility at 24 h (buffered water with excipients, pH 4, aqueous with cosolvent or surfactant or cyclodextrin, LBS (lactate) 30 mM pH 4.0, NaCl 3 mg/mL, SBE-beta-CD 40 mg/mL, pH exp 4.3) was 3980 µg/mL and the solubility at 24 h (buffered water with excipients, pH 5.5, aqueous with cosolvent or surfactant or cyclodextrin, CBS 30 mM pH 5.5, NaCl 3 mg/mL, SBE-beta-CD 40 mg/mL, pH exp 5.7) was 3100 µg/mL. It also gave a solubility at 0 h [1] of 2230 µg/mL, a solubility at 24 h [1] of 2230 µg/mL and a solubility at 0 h (buffered water without excipient (saturated solution), pH 4, aqueous buffer, CBS 30 mM pH 4.0, no excipient, pH exp 4.0) of 160 µg/mL. The solubility at 24 h (buffered water without excipient (saturated solution), pH 4, aqueous buffer, CBS 30 mM pH 4.0, no excipient, pH exp 4.2) was 120 µg/mL, the “effect of buffer on solubility with SBE-beta-CD” value (citrate acid, acetic acid, gluconic acid, lactic acid and aspartic acid buffer) was “approximately the same” and the “solubility (in words)” value (other solubilizers at concentrations suitable for intravenous use, including hydroxypropyl beta-cyclodextrin) was “Low solubility”. The “effect of additional excipient on solubility with SBE-beta-CD” value (saline) was “very small impact on solubility”, the “solubility (in words)” value (with SBE-beta-CD at concentrations of solubilizer suitable for intravenous use) was “High solubility” and the “solubility (in words)” value (with SBE-beta-CD, at higher pH) was “lower solubility”. For the same compound, the “solubility (in words)” value (with SBE-beta-CD, between pH 4 to pH 5.5) was “High solubility”.
